Data published in ChEMBL document CHEMBL1629703, “Novel hepatitis C virus reporter replicon cell lines enable efficient antiviral screening against genotype 1a” (Antimicrob Agents Chemother, 2010).

Experiments:
[1] = system: Hepatitis C virus; assay: Antiviral activity against Hepatitis C virus genotype 1b in luciferase encoding genotype 1b replicons after 3 days by luciferase reporter assay; format: functional, organism-based, Hepacivirus hominis; details: 72 h
[2] = system: Hepatitis C virus; assay: Antiviral activity against Hepatitis C virus genotype 1a in luciferase encoding genotype 1a replicons after 3 days by luciferase reporter assay; format: functional, organism-based, Hepacivirus hominis; details: subtype 1a, 72 h

Structure (SMILES) | EC50 [1] [nM] | EC50 [2] [nM]
CNC(=O)c1c(-c2ccc(F)cc2)oc2cc(N(CCO)S(C)(=O)=O)c(C3CC3)cc12 [NESBUVIR] | 22 | 45
C[C@@]1(O)[C@H](O)[C@@H](CO)O[C@H]1n1cnc2c(N)ncnc21 | 618 | 733
CCC[C@H](NC(=O)[C@@H]1[C@H]2CCC[C@H]2CN1C(=O)[C@@H](NC(=O)[C@@H](NC(=O)c1cnccn1)C1CCCCC1)C(C)(C)C)C(=O)C(=O)NC1CC1 [TELAPREVIR] | 1690 | 1250
COc1ccc2c(O[C@@H]3C[C@H]4C(=O)N[C@]5(C(=O)O)C[C@H]5/C=C\CCCCC[C@H](NC(=O)OC5CCCC5)C(=O)N4C3)cc(-c3csc(NC(C)C)n3)nc2c1 [CILUPREVIR] |  | 17
